Source: patent US9428477B2, “Trans-2-decenoic acid derivative and drug containing same” (NIPPON ZOKI PHARMACEUTICAL CO., LTD., priority 2012, dated 2016)

Experiments:
[1] = system: rats with paclitaxel-induced peripheral nerve disorder; assay: Rat peripheral nerve disorder induced by paclitaxel, von Frey test; format: in vivo; details: ip, test drug intraperitoneally, single dose, higher of values 1 and 5 hours after administration, mechanical stimulus of right hind limb, normal threshold 15, read-out: Recovery Rate of 50% Reaction Threshold Value
Description: The effects of the compounds of the present invention were evaluated for a peripheral nerve disorder which is a side effect induced by the administration of an anti-cancer agent paclitaxel, such as hyperesthesia including allodynia induced by mechanical stimuli, which is a severe pain induced by such tactile stimuli which usually cause no pains. The compound of the present invention was intraperitoneally administered to rats as a test drug to conduct a von Frey test.
Male SD rats of six weeks age (six rats per group) were used as experimental animals, and paclitaxel (2 mg/kg) was intraperitoneally administered every other day for four times in total to prepare rats with paclitaxel-induced peripheral nerve disorder. During the period of 18 to 25 days or during the period of 20 to 27 days after the initiation of paclitaxel administration, the test drug was intraperitoneally administered in a single dose of […], and the following von Frey test was conducted.
The rats of the above (1) were placed in a transparent acrylic cage with a wire-meshed floor and habituated for about three minutes, and the 50% reaction threshold values to the mechanical stimulus of right hind limb were measured before administration of the test drug and after 1 and 5 hours from the initiation of the administration.
The measurement was conducted using von Frey filaments (manufactured by North Coast Medical Inc.) in accordance with the methods of Chaplan, et al. (Journal of Neuroscience Methods, 53(1), 55-63, 1994) and Dixon, et al. (Annual Review of Pharmacology and Toxicology, 20, 441-462, 1980). […] The case where the rat escaped at the instance of removing the filament was also called positive. When the positive reaction was found, stimulus was applied similarly with a filament of one rank weaker, and in the absence of the reaction, stimulus was similarly applied with a filament of one rank stronger, and a point where the reaction changed from negative to positive or from positive to negative was called the first two reactions. Subsequently, stimuli were applied for continuously four times by the same up-down method. A 50% reaction threshold value to the mechanical stimulus was measured using the reaction to the six stimuli in total and then (mean value)±(standard error) for each group was calculated. Incidentally, when stimulus reached to a load of 15.0 g without positive reaction, or when positive reaction continued to a load of 0.4 g, 15.0 g or 0.25 g was adopted as each of 50% reaction threshold values. With regard to the higher 50% reaction threshold value between the 50% threshold values after 1 hour and 5 hours from administration of a test drug, a recovery rate (%) of the 50% reaction threshold value was calculated by the following expression in which 15 was taken as a normal threshold value.
Recovery rate (%) of 50% reaction threshold value=[(50% reaction threshold value after 1 hour or 5 hours from administration of test drug)−(50% reaction threshold value before administration of test drug)]/[(Normal threshold value)−(50% reaction threshold value before administration of test drug)]×100

[2] = system: MAP kinase (ERK 1/2); assay: Activation (phosphorylation) of MAP kinase in cultured cerebral cortex nerve cells, Western immunoblotting; format: cell-based; details: 0.5 h; fetal rat cerebral cortex nerve cells; compound 250 μg/ml in 0.1% DMSO; 30 minutes; relative to control = 1.00; read-out: Ratio of pMAPK to MAPK
Description: With regard to the compounds of the present invention, the activation of MAP kinase (ERK 1/2) was measured in accordance with a Western immunoblotting in the following manner.
Nerve cells were dispersed from cerebral cortex of a fetal rat of 17 days age, and the nerve cells were cultured for one day in a Dulbecco's modified Eagle's medium (DMEM) containing 5% fetal bovine serum. The culture medium was exchanged with a serum-free medium (B27 supplemented Neurobasal; Invitrogen), and the nerve cells were cultured at the density of 20,000 to 40,000 cells/cm^2 in a polyornithine-coated culture dish.
After three days, the compound of the present invention was added, and the culture was continued for 30 minutes. Thereafter, the cells were recovered on ice using a solution containing a phosphatase inhibitor where Tris-HCl buffer was used as a base. The protein concentration of the resulting cell extract was quantified with a BCA Protein Assay Kit (Takara Bio Co., Ltd.), and a certain amount of the protein (3 μg for the measurement of MAP kinase and 5 μg for the measurement of phosphorylated MAP kinase) was subjected to polyacrylamide gel electrophoresis. The protein was transferred from the electrophoresed gel to a PVDF membrane, and Western immunoblotting was carried out using each of an anti-MAP kinase antibody (Cell Signaling Technology) and an anti-phosphorylated MAP kinase antibody (Cell Signaling Technology) of the primary antibody.
Subsequently, the reaction with an alkaline phosphatase-labeled anti-rabbit IgG antibody (Promega) of the secondary antibody was carried out, and the enzymatic activity was allowed to develop color, to measure MAP kinase (MAPK) and the phosphorylated MAP kinase (pMAPK).
Incidentally, each of the compounds of the present invention was dissolved in 0.1% DMSO to adjust its concentration to 250 μg/ml. As to the control, 0.1% DMSO was added.
The intensity of the concentration of the bands of eletrophoresed the gel was calculated and quantified using Image J (K. K. Bioarts). The numerical values for the MAPK when using the compounds of the present invention were each divided by the numerical value for the MAPK of the control, and the numerical values for the pMAPK when using the compounds of the present invention were divided by the numerical value for the pMAPK of the control, whereby a ratio of the MAPK when using each of the compounds of the present invention to the control, and a ratio of the pMAPK when using each of the compounds of the present invention to the control were obtained. Subsequently, the ratio of the pMAPK to the control obtained was divided by the ratio of the MAPK to the control to obtain a ratio of the pMAPK to the MAPK.

Row | Structure (SMILES) | change in vivo at 0.3 mg/kg [1] [%] | fold induction at 250 µg/mL [2] | melting point
1 | CCCCCCC/C=C/C(=O)N1CCC(c2ccccc2)CC1 [Compound 16, 1-((E)-2-Decenoyl)-4-phenylpiperidine] | 38.6 |  | 
2 | CCCCCCC/C=C/C(=O)N1CCC(C)CC1 [Compound 6, 1-((E)-2-Decenoyl)-4-methylpiperidine] | 33.8 | 1.71 | 
3 | CCCCCCC/C=C/C(=O)N1CCN(c2ccccn2)CC1 [Compound 30, 1-((E)-2-Decenoyl)-4-(pyridin-2-yl)piperazine] | 22.6 |  | 
4 | CCCCCCC/C=C/C(=O)N1CCC(CCC(=O)O)CC1 [Compound 36, 3-(1-((E)-2-Decenoyl)-4-piperidyl)propanoic acid] | 42 |  | 
5 | CCCCCCC/C=C/C(=O)N1CCN(c2ccc(N(C)C)cc2)CC1 [Compound 28, 1-((E)-2-Decenoyl)-4-(4-dimethylaminophenyl)piperazine] | 20.3 |  | 73 to 74 °C
6 | CCCCCCC/C=C/C(=O)N1CCCN(C)CC1 [Compound 33, 1-((E)-2-Decenoyl)-4-methyl-[1,4]diazepane] | 33.4 |  | 
7 | CCCCCCC/C=C/C(=O)N1CCCN(CCN(C)C)CC1 [Compound 34, 1-((E)-2-Decenoyl)-4-(2-dimethylaminoethyl)-[1,4]diazepane] | 35.5 |  | 
8 | CCCCCCC/C=C/C(=O)N1CCN(c2ccc(OCC(=O)O)cc2)CC1 [Compound 47, 2-[4-[4-((E)-2-Decenoyl)piperazin-1-yl]phenoxy]acetic acid] | 54.5 |  | 210 °C (dec.)
9 | CCCCCCC/C=C/C(=O)N1CCN(CCCC(=O)O)CC1.Cl [Compound 40, 4-[4-[(E)-2-Decenoyl]piperazin-1-yl]butanoic acid hydrochloride] | 61.6 |  | 203 to 205 °C
10 | CCCCCCC/C=C/C(=O)N1CCC(N(CC)CC)CC1 [Compound 13, 1-((E)-2-Decenoyl)-4-diethylaminopiperidine] | 23.2 | 1.63 | 
11 | CCCCCCC/C=C/C(=O)N1CCN(CCN2CCCCC2)CC1 [Compound 24, 1-((E)-2-Decenoyl)-4-(2-piperidin-1-ylethyl)piperazine] | 49.7 | 2.58 | 
12 | CCCCCCC/C=C/C(=O)N1CCN(c2ccc(C)cc2)CC1 [Compound 43, 1-((E)-2-Decenoyl)-4-(4-methylphenyl)piperazine] | 31.3 |  | 45 to 46 °C
13 | CCCCCCC/C=C/C(=O)N1CCC(c2ccc(Cl)cc2)CC1 [Compound 38, 1-((E)-2-Decenoyl)-4-(4-chlorophenyl)piperidine] | 55.5 |  | 
14 | CCCCCCC/C=C/C(=O)N1CCC(O)CC1 [Compound 8, 1-((E)-2-Decenoyl)-4-hydroxypiperidine] | 49.7 |  | 
15 | CCCCCCC/C=C/C(=O)N1CCSC1 [Compound 4, 3-((E)-2-Decenoyl)thiazolidine] | 43.7 | 1.47 | 
16 | CCCCCCC/C=C/C(=O)N1CCN(c2ccc(Cl)cc2)CC1 [Compound 41, 1-((E)-2-Decenoyl)-4-(4-chlorophenyl)piperazine] | 81.5 |  | 
17 | CCCCCCC/C=C/C(=O)N1CCSCC1 [Compound 18, 4-((E)-2-decenoyl)thiomorpholine] | 48.9 | 1.28 | 

Row | Structure (SMILES) | change in vivo at 0.3 mg/kg [1] [%] | fold induction at 250 µg/mL [2] | melting point
18 | CCCCCCC/C=C/C(=O)N1CCN(C(C)C)CC1 [Compound 20, 1-((E)-2-Decenoyl)-4-isopropylpiperazine] | 26.9 | 1.27 | 
19 | CCCCCCC/C=C/C(=O)N1CCN(C)CC1 [Compound 19, 1-((E)-2-Decenoyl)-4-methylpiperazine] | 19.8 |  | 
20 | CCCCCCC/C=C/C(=O)N1CCN(c2ccccc2Cl)CC1 [Compound 45, 1-((E)-2-Decenoyl)-4-(2-chlorophenyl)piperazine] | 33.3 |  | 
21 | CCCCCCC/C=C/C(=O)N1CCN(c2ccc(F)cc2)CC1 [Compound 44, 1-((E)-2-Decenoyl)-4-(4-fluorophenyl)piperazine] | 42.6 |  | 
22 | CCCCCCC/C=C/C(=O)N1CCN(c2ccncc2)CC1 [Compound 29, 1-((E)-2-Decenoyl)-4-(pyridin-4-yl)piperazine] | 42.8 |  | 
23 | CCCCCCC/C=C/C(=O)N1CCCCCC1 [Compound 32, 1-((E)-2-Decenoyl)azepane] | 51.1 |  | 
24 | CCCCCCC/C=C/C(=O)N1CCN(c2ccc(O)cc2)CC1 [Compound 46, 1-((E)-2-Decenoyl)-4-(4-hydroxyphenyl)piperazine] | 53.7 |  | 85 to 87 °C
25 | CCCCCCC/C=C/C(=O)N1CCN(Cc2ccc(C(=O)O)cc2)CC1 [Compound 48, 4-[[4-((E)-2-Decenoyl)piperazin-1-yl]methyl]benzoic acid] | 56.4 |  | 114 to 116 °C
26 | CCCCCCC/C=C/C(=O)N1CCC(CCN(C)C)CC1 [Compound 15, 1-((E)-2-Decenoyl)-4-(2-dimethylaminoethyl)piperidine] | 34.2 |  | 
27 | CCCCCCC/C=C/C(=O)N1CCOCC1 [Compound 17, 4-((E)-2-Decenoyl)morpholine] | 30.6 |  | 
28 | CCCCCCC/C=C/C(=O)N1CCN(c2ncccn2)CC1 [Compound 31, 1-((E)-2-Decenoyl)-4-(pyrimidin-2-yl)piperazine] | 22.9 |  | 
29 | CCCCCCC/C=C/C(=O)N1CCN(CC(=O)O)CC1.Cl [Compound 39, [4-[(E)-2-Decenoyl]piperazin-1-yl]acetic acid hydrochloride] | 16.6 |  | 195 °C (dec.)
30 | CCCCCCC/C=C/C(=O)N1CCC(C#N)CC1 [Compound 37, 1-((E)-2-Decenoyl)-4-cyanopiperidine] | 22.4 |  | 
31 | CCCCCCC/C=C/C(=O)N1CCC(OC)CC1 [Compound 9, 1-((E)-2-Decenoyl)-4-methoxypiperidine] | 35.6 |  | 
32 | CCCCCCC/C=C/C(=O)N1CCN(c2ccc(OC)cc2)CC1 [Compound 42, 1-((E)-2-Decenoyl)-4-(4-methoxyphenyl)piperazine] | 45.8 |  | 50 to 52 °C
33 | CCCCCCC/C=C/C(=O)N1CCC(CC(=O)O)CC1 [Compound 35, 2-(1-((E)-2-Decenoyl)-4-piperidyl)acetic acid] | 41.2 |  | 65 to 66 °C
